Measurements from PubChem BioAssay (NCI).
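48-hour exposure; five concentrations; linearly interpolated endpoints. At the GI50, growth is halved. TGI: concentration producing complete growth inhibition.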

What was measured:
Assay in all cases: NCI tumour cell line growth inhibition, 48 h
SR leukemia = system: SR leukemia
OVCAR-4 ovarian = system: OVCAR-4 ovarian
CCRF-CEM leukemia = system: CCRF-CEM leukemia
LOX IMVI melanoma = system: LOX IMVI melanoma
HS 578T breast = system: HS 578T breast
SK-MEL-5 melanoma = system: SK-MEL-5 melanoma
UO-31 renal = system: UO-31 renal
NCI-H522 lung = system: NCI-H522 lung
K-562 leukemia = system: K-562 leukemia
PC-3 prostate = system: PC-3 prostate
IGROV1 ovarian = system: IGROV1 ovarian
OVCAR-8 ovarian = system: OVCAR-8 ovarian
COLO 205 colon = system: COLO 205 colon
SNB-19 CNS = system: SNB-19 CNS
OVCAR-5 ovarian = system: OVCAR-5 ovarian
T-47D breast = system: T-47D breast
HT29 colon = system: HT29 colon
OVCAR-3 ovarian = system: OVCAR-3 ovarian
SN12C renal = system: SN12C renal
SW-620 colon = system: SW-620 colon
HOP-62 NSCLC = system: HOP-62 NSCLC
MOLT-4 leukemia = system: MOLT-4 leukemia
U251 CNS = system: U251 CNS
KM12 colon = system: KM12 colon
MCF7 breast = system: MCF7 breast
DU-145 prostate = system: DU-145 prostate
A498 renal = system: A498 renal
RPMI-8226 leukemia = system: RPMI-8226 leukemia
NCI/ADR-RES ovarian = system: NCI/ADR-RES ovarian
UACC-257 melanoma = system: UACC-257 melanoma
SK-MEL-2 melanoma = system: SK-MEL-2 melanoma
HCC-2998 colon = system: HCC-2998 colon
EKVX NSCLC = system: EKVX NSCLC
MDA-MB-435 = system: MDA-MB-435
NCI-H460 lung = system: NCI-H460 lung
TK-10 renal = system: TK-10 renal
SNB-75 CNS = system: SNB-75 CNS
M14 melanoma = system: M14 melanoma
SK-OV-3 ovarian = system: SK-OV-3 ovarian
NCI-H23 lung = system: NCI-H23 lung
RXF 393 renal = system: RXF 393 renal
BT-549 breast = system: BT-549 breast
786-0 renal = system: 786-0 renal
HL-60(TB) leukemia = system: HL-60(TB) leukemia
UACC-62 melanoma = system: UACC-62 melanoma
SF-539 CNS = system: SF-539 CNS
MDA-MB-231 breast = system: MDA-MB-231 breast
SK-MEL-28 melanoma = system: SK-MEL-28 melanoma
NCI-H226 lung = system: NCI-H226 lung
SF-295 CNS = system: SF-295 CNS
A549 NSCLC = system: A549 NSCLC
HOP-92 NSCLC = system: HOP-92 NSCLC
HCT-116 colon = system: HCT-116 colon
MALME-3M melanoma = system: MALME-3M melanoma
HCT-15 colon = system: HCT-15 colon
SF-268 CNS = system: SF-268 CNS
CAKI-1 renal = system: CAKI-1 renal
ACHN renal = system: ACHN renal

C=C1C(=O)O[C@H]2[C@H]1CC/C(COC(=O)CCCc1c[nH]c3ccccc13)=C\CC[C@@]1(C)O[C@@H]21
GI50 (SR leukemia): 1.73 µM
TGI (SR leukemia): 6.37 µM
GI50 (OVCAR-4 ovarian): 1.66 µM
TGI (OVCAR-4 ovarian): 3.28 µM
GI50 (CCRF-CEM leukemia): 0.715 µM
TGI (CCRF-CEM leukemia): 7.5 µM
GI50 (LOX IMVI melanoma): 1.55 µM
TGI (LOX IMVI melanoma): 2.95 µM
GI50 (HS 578T breast): 3.19 µM
TGI (HS 578T breast): 20.9 µM
GI50 (SK-MEL-5 melanoma): 1.74 µM
TGI (SK-MEL-5 melanoma): 3.13 µM
GI50 (UO-31 renal): 1.41 µM
TGI (UO-31 renal): 2.73 µM
GI50 (NCI-H522 lung): 1.57 µM
TGI (NCI-H522 lung): 3.47 µM
GI50 (K-562 leukemia): 2.6 µM
TGI (K-562 leukemia): 11 µM
GI50 (PC-3 prostate): 1.92 µM
TGI (PC-3 prostate): 4.62 µM
GI50 (IGROV1 ovarian): 1.63 µM
TGI (IGROV1 ovarian): 3.61 µM
GI50 (OVCAR-8 ovarian): 3.38 µM
TGI (OVCAR-8 ovarian): 11.2 µM
GI50 (COLO 205 colon): 1.86 µM
TGI (COLO 205 colon): 3.79 µM
GI50 (SNB-19 CNS): 2.59 µM
TGI (SNB-19 CNS): 7.87 µM
GI50 (OVCAR-5 ovarian): 1.89 µM
TGI (OVCAR-5 ovarian): 3.98 µM
GI50 (T-47D breast): 2.17 µM
TGI (T-47D breast): 4.81 µM
GI50 (HT29 colon): 1.71 µM
TGI (HT29 colon): 3.37 µM
GI50 (OVCAR-3 ovarian): 1.53 µM
TGI (OVCAR-3 ovarian): 3.02 µM
GI50 (SN12C renal): 1.9 µM
TGI (SN12C renal): 4.44 µM
GI50 (SW-620 colon): 1.84 µM
TGI (SW-620 colon): 4.36 µM
GI50 (HOP-62 NSCLC): 6.54 µM
TGI (HOP-62 NSCLC): 19.6 µM
GI50 (MOLT-4 leukemia): 1.53 µM
TGI (MOLT-4 leukemia): 4.94 µM
GI50 (U251 CNS): 1.95 µM
TGI (U251 CNS): 3.67 µM
GI50 (KM12 colon): 1.89 µM
TGI (KM12 colon): 4.31 µM
GI50 (MCF7 breast): 1.42 µM
TGI (MCF7 breast): 3.85 µM
GI50 (DU-145 prostate): 1.67 µM
TGI (DU-145 prostate): 3.18 µM
GI50 (A498 renal): 11.9 µM
TGI (A498 renal): 24.3 µM
GI50 (RPMI-8226 leukemia): 2.31 µM
TGI (RPMI-8226 leukemia): 6.09 µM
GI50 (NCI/ADR-RES ovarian): 2.9 µM
TGI (NCI/ADR-RES ovarian): 10.9 µM
GI50 (UACC-257 melanoma): 2.03 µM
TGI (UACC-257 melanoma): 3.96 µM
GI50 (SK-MEL-2 melanoma): 1.96 µM
TGI (SK-MEL-2 melanoma): 5.39 µM
GI50 (HCC-2998 colon): 1.79 µM
TGI (HCC-2998 colon): 3.46 µM
GI50 (EKVX NSCLC): 2.02 µM
TGI (EKVX NSCLC): 5.01 µM
GI50 (MDA-MB-435): 1.74 µM
TGI (MDA-MB-435): 3.55 µM
GI50 (NCI-H460 lung): 4.54 µM
TGI (NCI-H460 lung): 19.2 µM
GI50 (TK-10 renal): 1.64 µM
TGI (TK-10 renal): 3.07 µM
GI50 (SNB-75 CNS): 12.6 µM
TGI (SNB-75 CNS): 26.6 µM
GI50 (M14 melanoma): 1.66 µM
TGI (M14 melanoma): 3.87 µM
GI50 (SK-OV-3 ovarian): 17.3 µM
TGI (SK-OV-3 ovarian): 32.8 µM
GI50 (NCI-H23 lung): 1.72 µM
TGI (NCI-H23 lung): 3.47 µM
GI50 (RXF 393 renal): 1.46 µM
TGI (RXF 393 renal): 2.85 µM
GI50 (BT-549 breast): 1.37 µM
TGI (BT-549 breast): 3.06 µM
GI50 (786-0 renal): 1.6 µM
TGI (786-0 renal): 3.2 µM
GI50 (HL-60(TB) leukemia): 1.63 µM
TGI (HL-60(TB) leukemia): 5.01 µM
GI50 (UACC-62 melanoma): 1.84 µM
TGI (UACC-62 melanoma): 3.79 µM
GI50 (SF-539 CNS): 1.63 µM
TGI (SF-539 CNS): 3.07 µM
GI50 (MDA-MB-231 breast): 1.78 µM
TGI (MDA-MB-231 breast): 3.7 µM
GI50 (SK-MEL-28 melanoma): 1.7 µM
TGI (SK-MEL-28 melanoma): 3.27 µM
GI50 (NCI-H226 lung): 2.04 µM
TGI (NCI-H226 lung): 4.38 µM
GI50 (SF-295 CNS): 5.69 µM
TGI (SF-295 CNS): 19 µM
GI50 (A549 NSCLC): 5.47 µM
TGI (A549 NSCLC): 22.4 µM
GI50 (HOP-92 NSCLC): 1.68 µM
TGI (HOP-92 NSCLC): 3.46 µM
GI50 (HCT-116 colon): 0.963 µM
TGI (HCT-116 colon): 2.36 µM
GI50 (MALME-3M melanoma): 1.79 µM
TGI (MALME-3M melanoma): 3.56 µM
GI50 (HCT-15 colon): 1.61 µM
TGI (HCT-15 colon): 3.99 µM
GI50 (SF-268 CNS): 1.69 µM
TGI (SF-268 CNS): 3.46 µM

CCCCCCCCCCCCCCCCNCCC[C@@H](C)[C@H]1CC[C@H]2[C@@H]3[C@H](OCCCN)C[C@@H]4C[C@H](OCCCN)CC[C@]4(C)[C@H]3C[C@H](OCCCN)[C@]12C
GI50 (UO-31 renal): 2.53 µM
TGI (UO-31 renal): 5.21 µM
GI50 (NCI-H522 lung): 2.25 µM
TGI (NCI-H522 lung): 5.36 µM
GI50 (COLO 205 colon): 2.52 µM
TGI (COLO 205 colon): 5.13 µM
GI50 (SW-620 colon): 2.18 µM
TGI (SW-620 colon): 4.94 µM
GI50 (KM12 colon): 2.18 µM
TGI (KM12 colon): 5.03 µM
GI50 (SK-MEL-2 melanoma): 2.48 µM
TGI (SK-MEL-2 melanoma): 5.35 µM
GI50 (MDA-MB-435): 2.28 µM
TGI (MDA-MB-435): 6.57 µM
GI50 (M14 melanoma): 2.5 µM
TGI (M14 melanoma): 5.65 µM
GI50 (NCI-H23 lung): 2.39 µM
TGI (NCI-H23 lung): 5.4 µM
GI50 (CAKI-1 renal): 1.9 µM
TGI (CAKI-1 renal): 4.58 µM
GI50 (SF-268 CNS): 2.17 µM
TGI (SF-268 CNS): 4.95 µM

O=C(c1cccs1)N1CCCN(C(=O)c2cccs2)C1=S
TGI (CCRF-CEM leukemia): > 100 µM
TGI (LOX IMVI melanoma): > 100 µM
TGI (HS 578T breast): > 100 µM
TGI (SK-MEL-5 melanoma): > 100 µM
TGI (ACHN renal): > 100 µM
TGI (UO-31 renal): > 100 µM
TGI (K-562 leukemia): > 100 µM
TGI (PC-3 prostate): > 100 µM
TGI (IGROV1 ovarian): > 100 µM
TGI (OVCAR-8 ovarian): > 100 µM
TGI (COLO 205 colon): > 100 µM
TGI (SNB-19 CNS): > 100 µM
TGI (OVCAR-5 ovarian): > 100 µM
TGI (T-47D breast): > 100 µM
TGI (HT29 colon): > 100 µM
TGI (OVCAR-3 ovarian): > 100 µM
TGI (SN12C renal): > 100 µM
TGI (SW-620 colon): > 100 µM
TGI (HOP-62 NSCLC): 66.2 µM
TGI (MOLT-4 leukemia): > 100 µM
TGI (U251 CNS): > 100 µM
TGI (KM12 colon): > 100 µM
TGI (MCF7 breast): > 100 µM
TGI (DU-145 prostate): > 100 µM
TGI (A498 renal): > 100 µM
TGI (RPMI-8226 leukemia): > 100 µM
TGI (NCI/ADR-RES ovarian): > 100 µM
TGI (UACC-257 melanoma): > 100 µM
TGI (SK-MEL-2 melanoma): > 100 µM
TGI (EKVX NSCLC): > 100 µM
TGI (MDA-MB-435): > 100 µM
TGI (TK-10 renal): > 100 µM
TGI (M14 melanoma): > 100 µM
TGI (SK-OV-3 ovarian): > 100 µM
TGI (NCI-H23 lung): > 100 µM
TGI (RXF 393 renal): > 100 µM
TGI (BT-549 breast): > 100 µM
TGI (786-0 renal): > 100 µM
TGI (HL-60(TB) leukemia): > 100 µM
TGI (UACC-62 melanoma): > 100 µM
TGI (SF-539 CNS): > 100 µM
TGI (MDA-MB-231 breast): > 100 µM
TGI (SK-MEL-28 melanoma): > 100 µM
TGI (CAKI-1 renal): > 100 µM
TGI (NCI-H226 lung): > 100 µM
TGI (SF-295 CNS): > 100 µM
TGI (HCT-116 colon): > 100 µM
TGI (MALME-3M melanoma): > 100 µM
TGI (HCT-15 colon): > 100 µM
TGI (SF-268 CNS): > 100 µM
